Results as given in patent publication US20060178374A1, “Aminoheteroaryl compounds as protein kinase inhibitors” (AGOURON PHARMACEUTICALS, INC., priority 2004, published 2006).

Biological target: HGFR (c-Met) (Homo sapiens, UniProt P08581)
Experiment: HGFR Continuous-Coupled Spectrophotometric Assay
Format: biochemical
Conditions: HGFR enzyme 50 nM, Met-2 peptide substrate, 37° C.
Method in brief: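 Human HGFR (50 nM final) phosphorylates the Met-2 activation-loop peptide, with ADP formation coupled through PK/LDH to NADH consumption, read as the A340 decrease over 10 min at 37 °C. Buffer was HEPES pH 7.5 with MgCl2, DTT, PEP and ATP.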

HGFR (c-Met), sequence (P08581 974-1390): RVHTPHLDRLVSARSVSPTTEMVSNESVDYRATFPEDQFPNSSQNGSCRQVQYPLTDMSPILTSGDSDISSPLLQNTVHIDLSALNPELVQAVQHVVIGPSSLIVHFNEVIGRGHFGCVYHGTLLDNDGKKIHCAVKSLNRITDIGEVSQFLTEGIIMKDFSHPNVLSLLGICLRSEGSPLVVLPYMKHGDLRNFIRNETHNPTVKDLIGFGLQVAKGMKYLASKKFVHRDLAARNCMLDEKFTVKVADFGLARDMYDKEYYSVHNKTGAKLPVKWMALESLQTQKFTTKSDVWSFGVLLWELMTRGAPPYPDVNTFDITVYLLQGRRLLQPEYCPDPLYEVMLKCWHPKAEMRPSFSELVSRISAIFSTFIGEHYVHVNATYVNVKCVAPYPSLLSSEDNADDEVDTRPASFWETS

Row | Compound | Ki
1 | COc1cc(-c2cnc(N)c(OC(C)c3c(Cl)ccc(F)c3Cl)c2)ccc1OCCO (stereo not shown) [Example 108, 2-(4-{6-amino-5-[1-(2,6-dichloro-3-fluorophenyl)ethoxy]pyridin-3-yl}-2-methoxyphenoxy)ethanol] | 0.022 µM
2 | Cc1noc(C)c1-c1cnc(N)c(OC(C)c2c(Cl)ccc(F)c2Cl)c1 (stereo not shown) [Example 109, 3-[1-(2,6-dichloro-3-fluoropheny)ethoxy]-5-(3,5-dimethylisoxazol-4-yl)pyridin-2-amine] | 0.86 µM
3 | CC(Oc1cc(C2=CCCC2)cnc1N)c1c(Cl)ccc(F)c1Cl (stereo not shown) [Example 110, 5-cyclopent-1-en-1-yl-3-[1-(2,6-dichloro-3-fluorophenyl)ethoxy]pyridin-2-amine] | 0.25 µM
4 | COc1cc(-c2cnc(N)c(OC(C)c3c(Cl)ccc(F)c3Cl)c2)ccc1OCCN1CCCC1 (stereo not shown) [Example 111, 3-[1-(2,6-dichloro-3-fluorophenyl)ethoxy]-5-[3-methoxy-4-(2-pyrrolidin-1-ylethoxy)phenyl]pyridin-2-amine] | 0.028 µM
5 | CC(Oc1cc(-c2ccc(C(=O)N3CC(N)C3)cc2)cnc1N)c1c(Cl)ccc(F)c1Cl (stereo not shown) [Example 112, 5-{4-[(3-aminoazetidin-1-yl)carbonyl]phenyl}-3-[1-(2,6-dichloro-3-fluorophenyl)ethoxy]pyridin-2-amine] | 0.018 µM
6 | CC(Oc1cc(-c2cncnc2)cnc1N)c1c(Cl)ccc(F)c1Cl (stereo not shown) [Example 113, 3-[1-(2,6-dichloro-3-fluorophenyl)ethoxy]-5-pyrimidin-5-ylpyridin-2-amine] | 0.36 µM
7 | CC(Oc1cc(-c2cnc(OC3CCN(C(=O)OC(C)(C)C)CC3)nc2)cnc1N)c1c(Cl)ccc(F)c1Cl (stereo not shown) [Example 114, tert-butyl 4-[(5-{6-amino-5-[1-(2,6-dichloro-3-fluorophenyl)ethoxy]pyridin-3-yl}pyrimidin-2-yl)oxy]piperidine-1-carboxylate] | 0.48 µM
8 | CC(Oc1cc(-c2cnc(Cl)nc2)cnc1N)c1c(Cl)ccc(F)c1Cl (stereo not shown) [Example 115, 5-(2-chloropyrimidin-5-yl)-3-[1-(2,6-dichloro-3-fluorophenyl)ethoxy]pyridin-2-amine] | 1.5 µM
9 | CC(Oc1cc(-c2ccc(C(=O)N(C)CCN(C)C)cc2)cnc1N)c1c(Cl)ccc(F)c1Cl (stereo not shown) [Example 118, 4-{6-amino-5-[1-(2,6-dichloro-3-fluorophenyl)ethoxy]pyridin-3-yl}-N-[2-(dimethylamino)ethyl]-N-methylbenzamide] | 0.03 µM
10 | C[C@H](Oc1cc(-c2ccc(C(=O)N3CCNCC3)cc2)cnc1N)c1c(Cl)ccc(F)c1Cl [Example 119, 3-[(1S)-1-(2,6-dichloro-3-fluorophenyl)ethoxy]-5-[4-(piperazin-1-ylcarbonyl)phenyl] pyridin-2-amine] | 1.5 µM
11 | CNCCN(C)C(=O)c1ccc(-c2cnc(N)c(OC(C)c3c(Cl)ccc(F)c3Cl)c2)cc1 (stereo not shown) [Example 123, 4-{6-amino-5-[1-(2,6-dichloro-3-fluorophenyl)ethoxy]pyridin-3-yl}-N-methyl-N-[2-(methylamino)ethyl]benzamide] | 0.06 µM
12 | CC(Oc1cc(-c2ccc(NCC3(O)CCNCC3)nc2)cnc1N)c1c(Cl)ccc(F)c1Cl (stereo not shown) [Example 124, 4-[({6′-amino-5′-[1-(2,6-dichloro-3-fluorophenyl)ethoxy]-3,3′-bipyridin-6-yl}amino)methyl]piperidin-4-ol] | 0.02 µM
13 | CC(Oc1cc(-c2ccc(C3CCNCC3)cc2)cnc1N)c1c(Cl)ccc(F)c1Cl (stereo not shown) [Example 125, 3-[1-(2,6-dichloro-3-fluorophenyl)ethoxy]-5-(4-piperidin-4-ylphenyl)pyridin-2-amine] | 0.025 µM
14 | C[C@@H](Oc1cc(-c2ccc(C(=O)N(C)CCCN(C)C)cc2)cnc1N)c1c(Cl)ccc(F)c1Cl [Example 128, 4-{6-amino-5-[(1 R^15)-1-(2,6-dichloro-3-fluorophenyl)ethoxy]pyridin-3-yl}-N-[3-(dimethylamino)propyl]-N-methylbenzamide] | 0.01 µM
15 | CC(Oc1cc(-c2ccc(CO)cc2)cnc1N)c1c(Cl)ccc(F)c1Cl (stereo not shown) [Example 130, (4-{6-amino-5-[1-(2,6-dichloro-3-fluorophenyl)ethoxy]pyridin-3-yl}phenyl)methanol] | 0.071 µM
16 | CC(Oc1cc(-c2cccc(CN)c2)cnc1N)c1c(Cl)ccc(F)c1Cl (stereo not shown) [Example 132, 5-[3-(aminomethyl)phenyl]-3-[1-(2,6-dichloro-3-fluorophenyl)ethoxy]pyridin-2-amine] | 0.069 µM
17 | CC(Oc1cc(-c2ccc(C(=O)N(C)C)cc2)cnc1N)c1c(Cl)ccc(F)c1Cl (stereo not shown) [Example 135, 4-{6-amino-5-[1-(2,6-dichloro-3-fluorophenyl)ethoxy]pyridin-3-yl}-N,N-dimethylbenzamide] | 0.037 µM
18 | CC(Oc1cc(-c2ccc(NS(C)(=O)=O)cc2)cnc1N)c1c(Cl)ccc(F)c1Cl (stereo not shown) [Example 138, N-(4-{6-amino-5-[1-(2,6-dichloro-3-fluorophenyl)ethoxy]pyridin-3-yl}phenyl) methanesulfonamide] | 0.032 µM
19 | COc1cc(-c2cnc(N)c(OC(C)c3c(Cl)ccc(F)c3Cl)c2)ccc1O (stereo not shown) [Example 140, 4-{6-amino-5-[1-(2,6-dichloro-3-fluorophenyl)ethoxy]pyridin-3-yl}-2-methoxyphenol] | 0.039 µM
20 | CC(Oc1cc(-c2cccc(NS(C)(=O)=O)c2)cnc1N)c1c(Cl)ccc(F)c1Cl (stereo not shown) [Example 141, N-(3-{6-amino-5-[1-(2,6-dichloro-3-fluorophenyl)ethoxy]pyridin-3-yl}phenyl) methanesulfonamide] | 0.054 µM
21 | CC(Oc1cc(-c2cccc(C(=O)N(C)C)c2)cnc1N)c1c(Cl)ccc(F)c1Cl (stereo not shown) [Example 142] | 0.059 µM
22 | CC(Oc1cc(-c2ccc3[nH]cc(CN(C)C)c3c2)cnc1N)c1c(Cl)ccc(F)c1Cl (stereo not shown) [Example 143, 3-[1-(2,6-dichloro-3-fluorophenyl)ethoxy]-5-{3-[(dimethylamino)methyl]-1H-indol-5-yl}pyridin-2-amine] | 0.072 µM

More lines, now with the values ahead:

Row | Ki | Compound
23 | 0.044 µM | COC(=O)c1n[nH]c2cc(-c3cnc(N)c(OC(C)c4c(Cl)ccc(F)c4Cl)c3)ccc12 (stereo not shown) [Example 106, methyl 6-{6-amino-5-[1-(2,6-dichloro-3-fluorophenyl)ethoxy]pyridin-3-yl}-1H-indazole-3-carboxylate]
24 | 0.027 µM | CC(Oc1cc(-c2cnc3[nH]c(=O)oc3c2)cnc1N)c1c(Cl)ccc(F)c1Cl (stereo not shown) [Example 107, 6-{6-amino-5-[1-(2,6-dichloro-3-fluorophenyl)ethoxy]pyridin-3-yl}(1,3]oxazolo[4,5-b]pyridin-2 (3H)-one]
25 | 0.16 µM | CC(Oc1cc(-c2cnc(OC3CCNCC3)nc2)cnc1N)c1c(Cl)ccc(F)c1Cl (stereo not shown) [Example 116, 3-[1-(2,6-dichloro-3-fluorophenyl)ethoxy]-5-[2-(piperidin-4-yloxy)pyrimidin-5-yl]pyridin-2-amine]
26 | 0.16 µM | COc1ncc(-c2cnc(N)c(OC(C)c3c(Cl)ccc(OC)c3Cl)c2)cn1 (stereo not shown) [Example 117, 3-[1-(2,6-dichloro-3-methoxyphenyl)ethoxy]-5-(2-methoxypyrimidin-5-yl)pyridin-2-amine]
27 | 1 µM | CC(Oc1cc(-c2cnc(N3CCN(C(=O)OC(C)(C)C)CC3)nc2)cnc1N)c1c(Cl)ccc(F)c1Cl (stereo not shown) [Example 120, tert-butyl 4-(5-{6-amino-5-[1-(2,6-dichloro-3-fluorophenyl)ethoxy]pyridin-3-yl}pyrimidin-2-yl)piperazine-1-carboxylate]
28 | 0.053 µM | CC(Oc1cc(-c2cnc(N3CCNCC3)nc2)cnc1N)c1c(Cl)ccc(F)c1Cl (stereo not shown) [Example 121, 3-[1-(2,6-dichloro-3-fluorophenyl)ethoxy]-5-(2-piperazin-1-ylpyrimidin-5-yl)pyridin-2-amine]
29 | 0.025 µM | CC(Oc1cc(-c2ccc(C(=O)N(C)CCCN(C)C)cc2)cnc1N)c1c(Cl)ccc(F)c1Cl (stereo not shown) [Example 122, 4-{6-amino-5-[1-(2,6-dichloro-3-fluorophenyl)ethoxy]pyridin-3-yl}-[3-(dimethylamino)propyl]-N-methylbenzamide]
30 | 0.01 µM | C[C@@H](Oc1cc(-c2ccc(C(=O)N(C)CCN(C)C)cc2)cnc1N)c1c(Cl)ccc(F)c1Cl [Example 126, 4-{6-amino-5-[(1 R)-1-(2,6-dichloro-3-fluorophenyl)ethoxy]pyridin-3-yl}-N-[2-(dimethylamino)ethyl]-N-methylbenzamide]
31 | 0.051 µM | C[C@@H](Oc1cc(-c2ccc(CO)cc2)cnc1N)c1c(Cl)ccc(F)c1Cl [Example 127, (4-{6-amino-5-[(1R)-1-(2,6-dichloro-3-fluorophenyl)ethoxy]pyridin-3-yl}phenyl)methanol]
32 | 0.03 µM | C[C@@H](Oc1cc(-c2ccc(C(=O)N3CCN(C(=O)OC(C)(C)C)CC3)cc2)cnc1N)c1c(Cl)ccc(F)c1Cl [Example 129, tert-butyl 4-(4-{6-amino-5-[(1 R)-1-(2,6-dichloro-3-fluorophenyl)ethoxy]pyridin-3-yl}benzoyl)piperazine-1-carboxylate]
33 | 0.133 µM | COc1ccc(-c2cnc(N)c(OC(C)c3c(Cl)ccc(F)c3Cl)c2)cc1 (stereo not shown) [Example 131, 3-[1-(2,6-dichloro-3-fluorophenyl)ethoxy]-5-(4-methoxyphenyl)pyridin-2-amine]
34 | 0.041 µM | CC(Oc1cc(-c2cccc(CC#N)c2)cnc1N)c1c(Cl)ccc(F)c1Cl (stereo not shown) [Example 133, (3-{6-amino-5-[1-(2,6-dichloro-3-fluorophenyl)ethoxy]pyridin-3-yl}phenyl)acetonitrile]
35 | 0.092 µM | CC(Oc1cc(-c2ccc(CC#N)cc2)cnc1N)c1c(Cl)ccc(F)c1Cl (stereo not shown) [Example 134, (4-{6-amino-5-[1-(2,6-dichloro-3-fluorophenyl)ethoxy]pyridin-3-yl}phenyl)acetonitrile]
36 | 0.073 µM | CC(Oc1cc(-c2ccc(O)cc2)cnc1N)c1c(Cl)ccc(F)c1Cl (stereo not shown) [Example 136, 4-{6-amino-5-[1-(2,6-dichloro-3-fluorophenyl)ethoxy]pyridin-3-yl}phenol]
37 | 0.053 µM | CCS(=O)(=O)c1ccc(-c2cnc(N)c(OC(C)c3c(Cl)ccc(F)c3Cl)c2)cc1 (stereo not shown) [Example 139, 3-[1-(2,6-dichloro-3-fluorophenyl)ethoxy]-5-(4-(ethylsulfonyl)phenyl]pyridin-2-amine]
